# Reference: ChEMBL document CHEMBL1201862, “PubChem BioAssay data set” (2004)
#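 Growth conditions: 96-well plates. Treatment: test compound, 48 hours, 5 concentrations. Analysis: linear interpolation between bracketing concentrations; unreached endpoints set to highest concentration. GI50 marks 50% less growth.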 Active and inactive are the calls of the source. Cut-off read from the data, not from the text of the source: active = GI50 up to about 1.1 µM and inactive = higher.
# What was measured:
# Assay in all cases: NCI anticancer screen, dose series, 48 h
# SF-539 = test system: SF-539
# SNB-75 = test system: SNB-75
# OVCAR-3 = test system: OVCAR-3
# SK-OV-3 = test system: SK-OV-3
# TK-10 = test system: TK-10
# HCT-15 = test system: HCT-15
# LOX IMVI = test system: LOX IMVI
# SW-620 = test system: SW-620
# SN12C = test system: SN12C
# MCF7 = test system: MCF7
# OVCAR-5 = test system: OVCAR-5
# HT-29 = test system: HT-29
# HL-60 = test system: HL-60
# NCI-H23 = test system: NCI-H23
# Malme-3M = test system: Malme-3M
# OVCAR-4 = test system: OVCAR-4
# SR = test system: SR
# 786-0 = test system: 786-0
# SK-MEL-5 = test system: SK-MEL-5
# NCI-H460 = test system: NCI-H460
# K562 = test system: K562
# MOLT-4 = test system: MOLT-4
# HOP-62 = test system: HOP-62
# PC-3 = test system: PC-3
# CAKI-1 = test system: CAKI-1
# NCI-H522 = test system: NCI-H522
# HOP-92 = test system: HOP-92
# U-251 = test system: U-251
# IGROV-1 = test system: IGROV-1
# RXF 393 = test system: RXF 393
# SF-268 = test system: SF-268
# MDA-MB-231 = test system: MDA-MB-231
# UACC-257 = test system: UACC-257
# ACHN = test system: ACHN
# DU-145 = test system: DU-145
# BT-549 = test system: BT-549
# NCI/ADR-RES = test system: NCI/ADR-RES
# OVCAR-8 = test system: OVCAR-8
# SK-MEL-2 = test system: SK-MEL-2
# COLO 205 = test system: COLO 205
# KM12 = test system: KM12
# SF-295 = test system: SF-295
# UACC-62 = test system: UACC-62
# MDA-MB-435 = test system: MDA-MB-435
# M14 = test system: M14
# T47D = test system: T47D
# UO-31 = test system: UO-31
# Hs-578T = test system: Hs-578T
# SNB-19 = test system: SNB-19
# A549 = test system: A549
# EKVX = test system: EKVX
# HCT-116 = test system: HCT-116
# NCI-H226 = test system: NCI-H226
# SK-MEL-28 = test system: SK-MEL-28
compound,measurement,setting,value
Oc1cc2c(cc1C(c1ccc3c(c1)OCO3)N1CCN(C(c3ccc4c(c3)OCO4)c3cc4c(cc3O)OCO4)CC1)OCO2 (centres undefined),GI50,SF-539,16.7 µM (inactive)
same,GI50,SNB-75,3.46 µM (inactive)
same,GI50,OVCAR-3,17.1 µM (inactive)
same,GI50,SK-OV-3,27 µM (inactive)
same,GI50,TK-10,20.2 µM (inactive)
same,GI50,HCT-15,7.98 µM
same,GI50,LOX IMVI,3.24 µM (inactive)
same,GI50,SW-620,12.7 µM (inactive)
same,GI50,SN12C,16 µM (inactive)
same,GI50,MCF7,27.2 µM (inactive)
same,GI50,OVCAR-5,18.2 µM (inactive)
same,GI50,HT-29,5.26 µM (inactive)
same,GI50,HL-60,32.5 µM (inactive)
same,GI50,NCI-H23,16.9 µM (inactive)
same,GI50,Malme-3M,15.6 µM (inactive)
same,GI50,OVCAR-4,4.36 µM (inactive)
same,GI50,SR,3.61 µM (inactive)
same,GI50,786-0,13.1 µM (inactive)
same,GI50,SK-MEL-5,18.6 µM (inactive)
same,GI50,NCI-H460,38.6 µM (inactive)
same,GI50,K562,21.4 µM (inactive)
same,GI50,MOLT-4,7.08 µM (inactive)
same,GI50,HOP-62,21.7 µM (inactive)
same,GI50,PC-3,28.9 µM (inactive)
same,GI50,CAKI-1,20.5 µM (inactive)
same,GI50,NCI-H522,14.2 µM (inactive)
same,GI50,HOP-92,23.2 µM (inactive)
same,GI50,U-251,15.4 µM (inactive)
same,GI50,IGROV-1,16.9 µM (inactive)
same,GI50,RXF 393,26.2 µM (inactive)
same,GI50,SF-268,18 µM (inactive)
same,GI50,MDA-MB-231,15.7 µM (inactive)
same,GI50,UACC-257,17.6 µM (inactive)
same,GI50,ACHN,13.7 µM (inactive)
same,GI50,DU-145,20.3 µM (inactive)
same,GI50,BT-549,13.7 µM (inactive)
same,GI50,NCI/ADR-RES,19.2 µM (inactive)
same,GI50,OVCAR-8,14 µM (inactive)
same,GI50,SK-MEL-2,19.5 µM (inactive)
same,GI50,COLO 205,31 µM (inactive)
same,GI50,KM12,16.7 µM (inactive)
same,GI50,SF-295,16.7 µM (inactive)
same,GI50,UACC-62,14.4 µM (inactive)
same,GI50,MDA-MB-435,17.7 µM (inactive)
same,GI50,M14,14.4 µM (inactive)
same,GI50,T47D,17.2 µM (inactive)
same,GI50,UO-31,12 µM (inactive)
same,GI50,Hs-578T,11.9 µM (inactive)
same,GI50,SNB-19,20.4 µM (inactive)
same,GI50,A549,34 µM (inactive)
same,GI50,EKVX,35.2 µM (inactive)
same,GI50,HCT-116,15.7 µM (inactive)
same,GI50,NCI-H226,16.1 µM (inactive)
same,GI50,SK-MEL-28,2.83 µM (inactive)
